{"source": "patent US20090227503A1", "about": "“PARATHYROID HORMONE TREATMENT FOR ENHANCED ALLOGRAFT AND TISSUE-ENGINEERED RECONSTRUCTION OF BONE DEFECTS” (UNIVERSITY OF ROCHESTER, priority 2008, published 2009)", "key": {"grafted femurs": {"test_system": "grafted femurs", "assay": "Mouse femoral allograft, micro-CT of grafted femurs (Example 4)", "type": "in vivo, mice", "description": "Four-mm long bone allografts were harvested from donor mice, and were processed and implanted into […] defects 195 in the femur of other mice and secured in place using a stainless steel intramedullary pin 190, as shown in FIG. 13. One week after surgery, daily injections of 40 μg/kg hrPTH (1-34) (Lilly, Inc., Indianapolis, Ind.) were initiated in half of the mice, while the others received injections of saline control. Weekly x-rays were taken to monitor progression (Faxitron X-Ray LLC, Wheeling, Ill.). One cohort of the study groups used 14 mice from each treatment (PTH and control) for imaging and mechanical material testing and were sacrificed 6 weeks after surgery. Each femur was harvested by disarticulating the hip and knee and removing the intramedullary stainless-steel pin. Specimens were moistened with saline and frozen at -20° C. until thawed for micro-CT imaging and torsion testing. Specimens were scanned at […] isotropic resolution using the Scanco VivaCT 40 (Scanco Medical AG, Bassersdorf, Switzerland). From these 3D images, the graft and callus bone volumes (BVGraft, BVCallus) were measured by manual segmentation, followed by standardized thresholding at a grayscale corresponding to 750 mgHA/cm^3. The cross-sectional polar moment of […]) were computed for each slice throughout the grafted region and the maximum, minimum and average […]) were investigated to determine their contribution to the biomechanics of the grafted femurs. The Union Ratio was also calculated. The Union Ratio measures the graft surface area upon which mineralized callus has formed. If the voxels adjacent to the graft surface are boney callus, the area of that region of the graft is measured and normalized to the total graft surface area. Imaging data (not shown) indicated the bare surface of the graft in blue, with regions of union to the callus depicted as red. Each half (proximal and distal) of the graft was evaluated separately and the lesser ratio of union area to total graft surface area was given as the Union Ratio for that specimen. Callus formation that bridged from host-to-host over the graft was determined by evaluating serial axial cross sections from micro-CT images and given a binary result. These samples were then mechanically tested in torsion. Yield torque (TYield), ultimate torque (TUlt), torsional rigidity (TR), toughness (or work to failure) and the twist at ultimate torque were determined for each specimen. Finally, the mode of failure for each specimen was determined using an x-ray image analysis (not shown). Bone volume quantification was performed from micro-CT imaging. Quantification of micro-CT results for a control and PTH treated (FIGS. 16E-H) specimen was performed. Cross sectional polar moment of inertia, graft were determined. Callus and intramedullary callus bone volumes were quantified for each specimen in a region of interest that extended from the proximal axial slice containing bone graft through the distal slice. These regions were manually segmented and quantified for bone volume, bone mineral density and bone mineral content at a threshold corresponding to 750 mgHA/cm^3. The total depth of penetration of callus into the intramedullary cavity from both ends was also measured. The trabecular-like region within the shell of the exterior callus was segmented for trabecular analysis to quantify BVF, Tb.No., Tb.Th., and Tb.Sp."}, "[1]": {"test_system": "contralateral intact femurs", "assay": "Torsion testing of contralateral intact femurs (Example 4)", "type": "in vivo, mice", "description": "Four-mm long bone allografts were harvested from donor mice, and were processed and implanted into intecalary defects 195 in the femur of other mice and secured in place using a stainless steel intramedullary pin 190, as shown in FIG. 13. One week after surgery, daily injections of 40 μg/kg hrPTH (1-34) (Lilly, Inc., Indianapolis, Ind.) were initiated in half of the mice, while the others received injections of saline control. Weekly x-rays were taken to monitor progression (Faxitron X-Ray LLC, Wheeling, Ill.).\nOne cohort of the study groups used 14 mice from each treatment (PTH and control) for imaging and mechanical material testing and were sacrificed 6 weeks after surgery. Each femur was harvested by disarticulating the hip and knee and removing the intramedullary stainless-steel pin. Specimens were moistened with saline and frozen at −20° C. until thawed for micro-CT imaging and torsion testing. Specimens were scanned at […] isotropic resolution using the Scanco VivaCT 40 (Scanco Medical AG, Bassersdorf, Switzerland). From these 3D images, the graft and callus bone volumes (BVGraft, BVCallus) were measured by manual segmentation, followed by standardized thresholding at a grayscale corresponding to 750 mgHA/cm^3. The cross-sectional polar moment of inertias (PMI) were computed for each slice throughout the grafted region and the maximum, minimum and average PMI (PMIMax, PMIMin, PMIAve) were investigated to determine their contribution to the biomechanics of the grafted femurs.\nThe Union Ratio was also calculated. The Union Ratio measures the graft surface area upon which mineralized callus has formed. If the voxels adjacent to the graft surface are boney callus, the area of that region of the graft is measured and normalized to the total graft surface area. Imaging data (not shown) indicated the bare surface of the graft in blue, with regions of union to the callus depicted as red. Each half (proximal and distal) of the graft was evaluated separately and the lesser ratio of union area to total graft surface area was given as the Union Ratio for that specimen. Callus formation that bridged from host-to-host over the graft was determined by evaluating serial axial cross sections from micro-CT images and given a binary result. These samples were then mechanically tested in torsion. Yield torque (TYield), ultimate torque (TUlt), torsional rigidity (TR), toughness (or work to failure) and the twist at ultimate torque were determined for each specimen. Finally, the mode of failure for each specimen was determined using an x-ray image analysis (not shown)."}, "[2]": {"settings": "40 μg/kg hrPTH (1-34) daily from week 1, 6 weeks after surgery, mean, n = 14"}, "[3]": {"settings": "vs saline, 6 weeks after surgery"}}}
{"smiles": "CC[C@H](C)[C@H](NC(=O)[C@H](CCC(=O)O)NC(=O)[C@H](CO)NC(=O)[C@@H](NC(=O)[C@@H](N)CO)C(C)C)C(=O)N[C@@H](CCC(N)=O)C(=O)N[C@@H](CC(C)C)C(=O)N[C@@H](CCSC)C(=O)N[C@@H](Cc1cnc[nH]1)C(=O)N[C@@H](CC(N)=O)C(=O)N[C@@H](CC(C)C)C(=O)NCC(=O)N[C@@H](CCCCN)C(=O)N[C@@H](Cc1cnc[nH]1)C(=O)N[C@@H](CC(C)C)C(=O)N[C@@H](CC(N)=O)C(=O)N[C@@H](CO)C(=O)N[C@@H](CCSC)C(=O)N[C@@H](CCC(=O)O)C(=O)N[C@@H](CCCN=C(N)N)C(=O)N[C@H](C(=O)N[C@@H](CCC(=O)O)C(=O)N[C@@H](Cc1c[nH]c2ccccc12)C(=O)N[C@@H](CC(C)C)C(=O)N[C@@H](CCCN=C(N)N)C(=O)N[C@@H](CCCCN)C(=O)N[C@@H](CCCCN)C(=O)N[C@@H](CC(C)C)C(=O)N[C@@H](CCC(N)=O)C(=O)N[C@@H](CC(=O)O)C(=O)N[C@H](C(=O)N[C@@H](Cc1cnc[nH]1)C(=O)N[C@@H](CC(N)=O)C(=O)N[C@@H](Cc1ccccc1)C(=O)O)C(C)C)C(C)C", "note": "[PTH, PTH (1-34)]", "values": [{"measurement": "BMCCallus", "setting": "grafted femurs; [2]", "value": 2.7, "unit": "mgHA"}, {"measurement": "BMDCallus", "setting": "grafted femurs; [2]", "value": 667, "unit": "mgHA/cc"}, {"measurement": "BVCallus", "setting": "grafted femurs; [2]", "value": 1.04, "unit": "mm^3/mm"}, {"measurement": "BVGraft", "setting": "grafted femurs; [2]", "value": 0.82, "unit": "mm^3/mm"}, {"measurement": "BVIntramed", "setting": "grafted femurs; [2]", "value": 0.2, "unit": "mm^3/mm"}, {"measurement": "Callus Tb. N.", "setting": "grafted femurs; [2]", "value": 13.2}, {"measurement": "Callus Tb. Sp.", "setting": "grafted femurs; [2]", "value": 0.065}, {"measurement": "Callus Tb. Th.", "setting": "grafted femurs; [2]", "value": 0.149}, {"measurement": "Callus trabecular BVF", "setting": "grafted femurs; [2]", "value": 0.576}, {"measurement": "Intramed Penetration Depth", "setting": "grafted femurs; [2]", "value": 2.22, "unit": "mm"}, {"measurement": "PMIAve", "setting": "grafted femurs; [2]", "value": 1.16, "unit": "mm^4"}, {"measurement": "PMIMax", "setting": "grafted femurs; [2]", "value": 2.17, "unit": "mm^4"}, {"measurement": "PMIMin", "setting": "grafted femurs; [2]", "value": 0.51, "unit": "mm^4"}, {"measurement": "Union Ratio", "setting": "grafted femurs; [2]", "value": 0.277}, {"measurement": "ratio of callus BMCPTH:BMCSaline", "setting": "grafted femurs; 6 weeks", "value": 1.67}, {"measurement": "maximum outer radius of the callus", "setting": "grafted femurs; 6 weeks, saline 1.8±0.2 mm", "value": "1.7±0.3", "unit": "mm"}, {"measurement": "specimens with bridging over the graft from host-to-host", "setting": "grafted femurs; 6 weeks, saline 6 of 14", "value": "8 of 14"}, {"measurement": "Union Ratio greater in PTH treated animals", "setting": "grafted femurs; across all samples, vs saline", "value": 2.8, "unit": "fold"}, {"measurement": "Intramedullary penetration depth", "setting": "grafted femurs; grafts from PTH-treated animals, saline 1.7±0.6 mm", "value": "2.2±0.7", "unit": "mm"}, {"measurement": "Union Ratio of the single PTH-treated specimen of FIG. 15H", "setting": "grafted femurs; one specimen, saline control specimen 0.02", "value": 0.31}, {"measurement": "bone mineral density of the callus, less dense by", "setting": "grafted femurs; vs saline, 6 weeks", "value": 14, "unit": "%"}, {"measurement": "bone volume fraction within the callus, greater by", "setting": "grafted femurs; vs saline, 6 weeks", "value": 52, "unit": "%"}, {"measurement": "graft bone volume (graft resorption)", "setting": "grafted femurs; vs saline, 6 weeks", "value": "not different between treatment groups"}, {"measurement": "net callus total mineral content, greater by", "setting": "grafted femurs; vs saline, 6 weeks", "value": 67, "unit": "%"}, {"measurement": "increase in BVCallus", "setting": "grafted femurs; [3]", "value": 93, "unit": "%"}, {"measurement": "increase in BVIntramed", "setting": "grafted femurs; [3]", "value": 217, "unit": "%"}, {"measurement": "increase in PMIAve", "setting": "grafted femurs; [3]", "value": 38, "unit": "%"}, {"measurement": "increase in PMIMax", "setting": "grafted femurs; [3]", "value": 26, "unit": "%"}, {"measurement": "Union Ratio, greater by", "setting": "grafted femurs; vs saline, 6 weeks, p<0.01", "value": 76, "unit": "%"}, {"measurement": "Intramedullary penetration depth, greater by", "setting": "grafted femurs; vs saline, p=0.12", "value": 28, "unit": "%"}, {"measurement": "torsional mechanics of intact contralateral femurs", "setting": "[1]; 6 weeks of PTH treatment", "value": "did not show a significant increase in torsional mechanics"}, {"measurement": "TR", "setting": "[1]; PTH Contra, 6 weeks, mean", "value": 1284, "unit": "N*mm^2/Rad"}, {"measurement": "Tult", "setting": "[1]; PTH Contra, 6 weeks, mean", "value": 22.6, "unit": "N*mm"}, {"measurement": "Twist at Tult", "setting": "[1]; PTH Contra, 6 weeks, mean", "value": 0.029, "unit": "Rad/mm"}, {"measurement": "Tyield", "setting": "[1]; PTH Contra, 6 weeks, mean", "value": 15.1, "unit": "N*mm"}, {"measurement": "Work to TUlt", "setting": "[1]; PTH Contra, 6 weeks, mean", "value": 0.401, "unit": "Nmm*Rad/mm"}, {"measurement": "Work to TYield", "setting": "[1]; PTH Contra, 6 weeks, mean", "value": 0.151, "unit": "Nmm*Rad/mm"}]}
